Measured values reported in US8822705B2, “Pharmaceutical composition for preventing and/or treating bone disease, functional food or health food and pharmaceutical preparation comprising thereof as active ingredient” (priority 2006, dated 2014).
Entries after “also recorded” stand apart in the source; their conditions may differ.

Legend:
MC3T3-E1 cells [1] = test: Calcification of calcium by osteoblast, Alizarin red S staining; format: cell-based, mouse
Experimental: (§1) MC3T3-E1 cells, pre-osteoblast cells, were suspended in α-MEM and plated in each well of the 96 well-microplate with 4×10^3 cells/well. Then, they were pre-incubated for 2 days at 37° C., 5% CO2 incubator. On day 3 from the beginning of the pre-incubation, culture medium in the wells were changed to α-MEM containing each concentration of test sample, 50 μg/mL of ascorbic acid and 10 mM β-glycerophosphoric acid, and then incubated for 7 to 21 days. In the incubation, the culture medium in the wells was exchanged in every 3 or 4 days.
Calcification of osteoblast cells were confirmed by Alizarin red S staining.
Effects of the above-mentioned four compounds and glycosides to the calcification of calcium by osteoblast were shown in FIG. 5.

MC3T3-E1 cells [2] = test: Cytotoxicity by Cell Counting kit-8 or MTT (total cell numbers); format: cell-based, mouse; settings: for cell number decreasing (cytotoxicity): by 30 μM
Experimental: After incubation of the same condition as described above, cytotoxicity was measured by using the Cell counting kit-8 or MTT according to the conventional method.
Cytotoxicity was measured by using Cell Counting kit-8 or MTT according to conventional method, after MC3T3-E1 was incubated in the same conditions as (2) described above.

MC3T3-E1 cells [3] = test: Osteoblast differentiation, ALP activity in MC3T3-E1 cells; format: cell-based, mouse; settings: incubated 7 to 21 days with test sample, absorbance at 405 nm, FIGS. 1A to 1D
Experimental: as §1
After the incubation period, the cells were fixed by using methanol. After drying the dish, activity of alkaline phosphatase (ALP), a marker enzyme of early stage osteoblast differentiation, was measured, and subjected to ALP staining.
In the measurement of ALP activity, a buffer containing 6.7 mM p-nitrophenylphosphate as a substrate, supplemented 2 mM magnesium chloride and 100 mM tris-HCl, pH 8.5. 100 μL of the buffer was plated in each well, incubated in 30 minutes at 37° C. Then, 100 μl of 0.1 N sodium hydroxide was added to the wells to terminate the reaction. After that, the absorbance at 405 nm was measured by using the plate reader and the absorbance value was used as ALP activity.
In ALP staining, the buffer containing 0.1 mg/ml naphtol AS-MX phosphate, 0.6 mg/ml fast blue BB salt, supplemented 2 mM magnesium chloride and 10 mM tris-HCl pH 8.5 was used. 50 μL of the buffer was added to each well of the 96 well-microplate and incubated for 30 minutes to 1 hour to stain.

[4] = test system: excised first molar of C57BL/6 mice grafted under capsule of kidney; test: Graft culture of excised tooth with impregnated agarose beads under kidney capsule, alveolar bone formation; format: in vivo, mouse; settings: three agarose beads impregnated in 100 μM acerogenin A embedded into dental pulp, 3 weeks graft culture, compared to D-PBS bead negative control; FIG. 4B
Experimental: Agarose beads impregnated in acerogenin A (hereinbelow, it is referred to as “acerogenin A-impregnated beads”) were prepared as follows. acerogenin A was diluted to 100 μM (at final concentration) by using D-PBS. Affi-Gel agarose beads were washed by using PBS. Washed agarose beads were placed in the 1.5 mL Eppendorf tube with flat bottom and 100 μL of the acerogenin A solution was added into it. Then, the tube was incubated at room temperature for 45 minutes to impregnated acerogenin A into the agarose beads. Acerogenin-impregnated agarose beads obtained were used for embedding under dental pulp in below.
Alternatively, as negative control, agarose beads similarly to prepare the acerogenin A-impregnated beads but impregnated in D-PBS without acerogenin A (hereinbelow, it is referred to as “D-PBS-impregnated beads”) were used.
Five days age of […] mice, where their dental roots-periodontal tissue was just before formed, were anesthetized and sacrificed by decapitation. After excised lower jaw of them, the first molars in the lower jaw were excised with dental follicles. For the test group, three acerogenin A-impregnated agarose beads were embedded into the dental pulp of the excised teeth, the first molar in the lower jaw. […]

| SMILES | calcification activity level of calcium, rank order (MC3T3-E1 cells [1]) | cell number decreasing (cytotoxicity) (MC3T3-E1 cells [2]; FIGS. 2B and D) | cell numbers (cytotoxicity) (MC3T3-E1 cells [2]; by 100 μM, FIGS. 2B and D) | ALP activity (early stage osteoblast differentiation) (MC3T3-E1 cells [3]) | cell numbers (cytotoxicity) (MC3T3-E1 cells [2]; FIGS. 2A and C) | cell numbers (cytotoxicity) at high concentration (MC3T3-E1 cells [2]; FIGS. 2A and C) | alveolar bone formation of grafted tooth [4] |
| --- | --- | --- | --- | --- | --- | --- | --- |
| Oc1ccc2cc1Oc1ccc(cc1)CCCC[C@@H](O)CC2 [(R)-acerogenin B, 2-Oxatricyclo[13.2.2.13,7]eicosa-3,5,7(20),15,17,18-hexaene-4,10-diol, (10R)-(9CI)] | (R)-acerogenin B>aceroside I≅acerogenin A>aceroside B1 | not observed | not affected | enhanced ALP activity |  |  |  |
| Oc1ccc2cc1Oc1ccc(cc1)CC[C@H](O)CCCC2 [acerogenin A, 2-Oxatricyclo[13.2.2.13,7]eicosa-3,5,7 (20),15,17,18-hexaene-4,12-diol, (12R)-(9CI)] | (R)-acerogenin B>aceroside I≅acerogenin A>aceroside B1 |  |  | enhanced ALP activity | not affected | slightly decreased | prominent extension of alveolar bone formation |
| OC[C@H]1O[C@@H](Oc2ccc3cc2Oc2ccc(cc2)CCCC[C@@H](O)CC3)[C@H](O)[C@@H](O)[C@@H]1O [aceroside B1, α-D-Glucopyranoside,(10R)-10-hydroxy-2-oxatricyclo[13.2.2.13,7]eicosa-3,5,7(20),15,17,18-hexaen-4-yl (9CI)] | (R)-acerogenin B>aceroside I≅acerogenin A>aceroside B1 | not observed | not affected | enhanced ALP activity |  |  |  |
| OC[C@H]1O[C@H](Oc2ccc3cc2Oc2ccc(cc2)CC[C@@H](O)CCCC3)[C@H](O)[C@@H](O)[C@@H]1O [aceroside I, α-D-Glucopyranoside, (12S)-12-hydroxy-2-oxatricyclo[13.2.2.13,7]eicosa-3,5,7(20),15,17,18-hexaen-4-yl (9CI)] | (R)-acerogenin B>aceroside I≅acerogenin A>aceroside B1 |  |  | enhanced ALP activity; also recorded: dose-dependently enhanced | not affected | slightly decreased |  |
